{
  "source": "paper PMC5108082",
  "about": "“Pharmacokinetics, toxicity, and cytochrome P450 modulatory activity of plumbagin” (BMC Pharmacology & Toxicology, 2016)",
  "origin": "cited, not measured here",
  "key": {"CYP2C19": {"tested_on": "CYP2C19", "conditions": "cited from earlier work"}, "parasitemia": {"tested_on": "parasitemia", "set-up": "method as in PMID 24410949", "conditions": "25 mg/kg body weight given for 4 days; cited from earlier work"}, "[1]": {"tested_on": "K1 chloroquine-resistant P. falciparum", "conditions": "K1 clone; read-out: median IC50; cited from earlier work"}, "CYP3A4": {"tested_on": "CYP3A4", "conditions": "cited from earlier work"}},
  "data": [
    {"compound": "CC1=CC(=O)c2c(O)cccc2C1=O", "note": "[plumbagin, 5-hydroxy-2-methyl-1,4-naphthoquinone]", "values": [
      {"measurement": "IC50", "setting": "CYP2C19", "value": 0.78, "unit": "µM"},
      {"measurement": "antimalarial activity in vivo (reduction of parasitemia, prolongation of survival time)", "setting": "parasitemia", "value": "weak"},
      {"measurement": "IC50", "setting": "[1]", "value": 0.37, "unit": "µM"},
      {"measurement": "IC50", "setting": "CYP3A4", "value": 2.37, "unit": "µM"}
    ]}
  ]
}
